# Patent publication US11046647B2, “Activators of the unfolded protein response” (The Board of Trustees of the University of Illinois, priority 2018, dated 2021)
# Columns and labels:
# [1] = tested on: MCF-7 cells; test: Trypan Blue exclusion cell death assay, MCF-7; type: cell-based, human; conditions: 24 hours
# Description: TRYPAN BLUE: For decades, viable cells have been measured by their ability to exclude the dye Trypan Blue. […] Dead cells, which have lost membrane integrity, take up the dye and are blue. Thus, the percentage of dead cells is the percentage of cells that are Trypan Blue positive out of the total cell population. Quantitative assessment of Trypan Blue uptake uses a cell counter from Fisher. Since the assay is instrument based, there is no observer bias in determining the percentage of Trypan Blue positive cells.
# TRYPAN BLUE ASSAYS: Assays are performed on cells in 6 well plates: 300,000 cells are plated in each well of a 6-well plate in 3 ml of medium. After 24 hours, the DMSO vehicle or the indicated compound is added (in 1000th of the vol.) The cells incubated for an additional 24 hours, and then harvested in 0.25 ml of trypsin, followed after harvest by 0.75 ml of medium. […]
# The Trypan Blue cell death assay was used to evaluate the ability of the active enantiomer of 105 (−) [(−)-105] to kill ERα positive MCF-7 and TYS-Luc, human breast cancer cells. […] After 24 hours, the cells were harvested, and the % dead cells was determined by automated Trypan Blue exclusion using the Countess II automated hemocytometer. Percentage of viable cells was calculated by doing 100-(Cell Death %). […]
# [2] = tested on: MCF-7 tumors; test: MCF-7 orthotopic tumor model; type: in vivo, mouse
# Experimental: FIG. 39. SERK-F6 eradicates wild-type ERα tumors via hyperactivation of aUPR. a, MCF-7 orthotopic tumors were established in Nu/J ovariectomized mice supplemented with a 60 day E2 pellet (0.36 mg) and grown to ˜400 mm^3 (28 days to establish), randomized, then treated with vehicle daily (n=3), vehicle weekly (n=3), fulv. weekly (5 mg/mouse, s.c., n=6), SERK-F6 daily (10 or 40 mg/kg p.o.). Vehicle arms were averaged. p values: *: p≤0.05, **: p≤0.01, ***: p≤0.001, ****: p≤0.0001. Tumor images were taken at the end of the study (day 21) and are representative of all tumors (n=6). b-e, MCF-7 cells were orthotopically bi-laterally grafted and tumors were grown until total tumor burden was ˜400 mm^3 prior to daily treatment with vehicle or SERK-F6 (40 mg/kg p.o.). Mice (n=5 per arm) were sacrificed after 3 days (b,c) and 7 days (d,e) and tumors harvested. […] Vinculin (Vin) was used as a loading control. […] Error bars represent S.E.M.
# To probe the efficacy of SERK-F6 for killing ERα positive tumors, large MCF-7 tumors were grown and then intervened with therapy. […] The mice were then sacrificed prior to complete tumor eradication.
smiles,measurement,setting,value
"O=C1Nc2c(C(F)(F)F)cccc2C1(c1ccc(O)cc1)c1ccc(OC(F)(F)F)cc1 (single isomer, unassigned; (-)) [(−)-105, 3-(4-hydroxyphenyl)-3-(4-(trifluoromethoxy)phenyl)-7-(trifluoromethyl)indolin-2-one]","killing of MCF-7 cells, dose response",[1],superior to BHPI
same,UPR markers in tumors (western blot),"[2]; 40 mg/kg p.o., 3 and 7 days",increases in P-PERK and P-eiF2alpha levels
same,murine weight during the study,[2]; daily treatment,did not lead to any change in murine weight
same,tumor response,"[2]; large established MCF-7 tumors, SERK-F6 10 or 40 mg/kg p.o. daily, fulv. 5 mg/mouse s.c. weekly",dramatic tumor regressions
